Structures are written as SMILES. Where two headings read alike, the source gives them in different places.

Experiment [1] deals with A549 non-small cell lung cancer cell line. The experiment in a line: Proliferation of A549 (CellTiter Glo). As to conditions: Homo sapiens, A549, 96 h, read-out: IC50 μM (A549 Cell Line). Format: cell-based. In a few lines: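 Luminescent CellTiter Glo read-out after 96 h compound exposure of A549 cells plated at 1,000/well and rested 24 h at 37° C; DMSO kept ≤0.25%, dilutions 3-fold. Inhibition taken relative to DMSO-treated wells; IC50, relative IC50 and top inhibition derived by curve fitting.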

The subject of experiment [2] is phosphorylation of PKCμ, PKCδ and Erk1/2 in A549 lung cancer cells. Format: cell-based. To be noted: 30 minutes. Here is the method: Cells were then treated with different drugs at indicated concentrations for 30 minutes. […] Imagequant LAS4000 (GE) was used to scan membranes if secondary antibodies anti-mouse IgG HRP conjugate or anti-rabbit IgG HRP conjugate (dilutions from 1:2000-1:10000) were used. For ProteinSimple Wes system, manufacture's procedure was followed (ProteinSimple 12-230 kDa Wes Separation Module) for sample preparation, loading, running, and data analysis.
Phosphorylation of these sites has been linked to acute activation or catalytic activity of the PKC isoforms and Erk1/2. High level of phosphorylation indicates strong activation.

The test system of experiment [3] is Namalwa (Lymphoma) cell line. The experiment is described as follows: Proliferation of Namalwa. Format: cell-based. The protocol: (§1) The diterpenoid compounds were tested in A549, a non-small cell lung cancer cell line harboring a K-Ras activating mutation. Briefly, A549 cells at a density of 1,000 cells/well were seeded in 96-well plates and incubated at 37° C. for 24 hours. A series of different concentrations of compound stocks (500×) were prepared by 3-fold serial dilution in DMSO. These compounds were further diluted in culture media and then added to cells so that the final DMSO concentration was not exceeding 0.25%. After 96 hours of incubation, 50 μL of CellTiter Glo reagent (Promega) was added to each well and luminescence was measured after 10 minutes using EnVision (PerkinElmer). Luminescence from cells treated with DMSO alone was set as Max and % of inhibition was calculated as follows: Inhibition %=(Max−Sample value)/Max×100. Data was analyzed using XL-fit software (ID Business Solutions Ltd.) and IC50, relative IC50, and % of top inhibition was calculated. Some of the compounds in this disclosure were very potent in blocking proliferation of A549 lung cancer cells at low nM range. In addition, potency of inhibiting A549 proliferation correlated well with its binding affinity to PKCs for this series of compounds. In other words, higher affinity binders had stronger inhibitory effects on A549 proliferation. This further support the notion that activation, rather than inhibition, of certain PKC isoforms is required to block proliferation of cancer cells, some of which may harbor K-Ras mutations. This is in sharp contrast to previous literature and common belief that inhibition of PKC is necessary to block cancer cell growth (Kang, 2014, New Journal of Science, 2014:1-36). Data presented here is in agreement with recent findings that many loss-of-function but not gain-of-function mutations of PKC isoforms have been identified in many human cancers (Antal et al., 2015, Cell, 160:489-502).
(§2) The compounds in this disclosure were tested for their potency in blocking proliferation of a few other cancer cells lines, including K-Ras mutant pancreatic cell lines Panc2.13 and KP-4, leukemia cell line HL-60, and lymphoma cell lines Namalwa and Mino. Similar procedures as in Example 67 were followed. Initial cell numbers seeded in 96-well plates were different for different cell lines: 3000 cells/well for Panc2.13; 800-1000 cells/well for KP-4; 5000 cells/well for HL-60; 5000-10000 cells/well for Namalwa and Mino. A ratio ratio of (IC50 of K01)/(IC50 of compound) (data in parenthesis in Table 5) was used to normalize the compound potency from different assay batches to a common comparator […].

The test system of experiment [4] is HL-60 (Leukemia) cell line. The experiment is described as follows: Proliferation of HL-60. Format: cell-based. Here is the method: as §1, §2
A further experiment has as its target T1, C1b domain of human PKCδ (Homo sapiens, UniProt Q05655).
T1 construct: Genes encoding C1b domains of human PKCα, δ, ε, θ, and PKD1 (PKCμ) were synthesized; made in house; host or cells: E. coli BL21(DE3)
The experiment in a line: Competitive 3H-PDBu binding to C1b domain of PKCδ. To be noted: Ki PKCδ, 3H-PDBu competition. In a few lines:
(§3)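 Ki derived by Cheng-Prusoff from IC50, with each protein batch's measured ^3H-PDBu Kd. Displacement of ^3H-PDBu from E. coli-produced GST-fused C1b domains or full-length human PKC was run 10 min at 37°C plus 20 min on ice, with filter capture and scintillation counting.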

Experiment [5] deals with Mino (Lymphoma) cell line. The experiment in a line: Proliferation of Mino. The class given is cell-based. Here is the method: as §1, §2
Another experiment addresses T2, C1b domain of human PKCα (Homo sapiens, UniProt P17252).
T2 construct: Genes encoding C1b domains of human PKCα, δ, ε, θ, and PKD1 (PKCμ) were synthesized; made in house; host or cells: E. coli BL21(DE3)
The experiment is described as follows: biochemical. Format: binding. As to conditions: 3H-PDBu competition; for Ki: Ki PKCα. In a few lines: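 Competitive binding against 3H-PDBu tracer used recombinant GST-C1b fusion protein expressed in E. coli. Incubation ran 10 min at 37°C with shaking, then 20 min on ice, followed by filtration and scintillation counting of trapped 3H-PDBu. Affinity was derived using each protein preparation's experimentally determined Kd for 3H-PDBu.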

Experiment [6] concerns the target T3, C1b domain of human PKD1 (PKCμ) (Homo sapiens, UniProt Q15139).
T3 construct: Genes encoding C1b domains of human PKCα, δ, ε, θ, and PKD1 (PKCμ) were synthesized; made in house; host or cells: E. coli BL21(DE3)
T3 sequence (Q15139 270-320 limits assumed): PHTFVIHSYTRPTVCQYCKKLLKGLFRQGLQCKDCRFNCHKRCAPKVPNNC
The experiment in a line: biochemical. The class given is binding. In a few lines:
as §3

Another experiment relates to PANC1 cells. The experiment in a line: Sphere formation assay (cancer stemness). Format: cell-based. To be noted: Homo sapiens, PANC-1, read-out: concentration exhibiting at least 50% inhibition on the sphere forming efficiency. The protocol:
A group of diterpenoid compounds of the present disclosure were tested to assess their effects on blocking formation of spheres from cancer cell lines such as PANC1, a K-Ras mutant pancreatic cell line. Briefly, PANC1 cells were harvested, re-suspended as single cell suspensions, counted and seeded into Ultra Low Attachment Culture 96-well plate (Corning, Cat #3474) at 100 cells/well in 100 μl of complete media (with 10% FBS) containing 2% Matrigel (Corning, Cat #354234) and DMSO or compounds. Six replicates per condition were seeded. The seeded cells were placed in the 37° C. tissue culture incubator. 10 μl of low serum containing media (with 0.1% FBS) was added to each well every week. Spheres formed after 3-4 weeks were counted. Sphere forming efficiency was expressed as percentage of # of spheres/# of cells seeded.

The target of the next experiment is T4, C1b domain of human PKCθ (Homo sapiens, UniProt Q04759).
T4 construct: Genes encoding C1b domains of human PKCα, δ, ε, θ, and PKD1 (PKCμ) were synthesized; made in house; host or cells: E. coli BL21(DE3)
T4 sequence (Q04759 231-281 limits assumed): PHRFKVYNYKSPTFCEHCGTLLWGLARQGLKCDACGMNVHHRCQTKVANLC
The experiment in a line: Competitive 3H-PDBu binding to C1b domain of PKCθ. In a few lines:
as §3

T1 sequence (Q05655 230-280 limits assumed): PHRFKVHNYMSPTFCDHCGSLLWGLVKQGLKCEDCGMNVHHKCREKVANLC

Take `CC1=C[C@H]2[C@@]3(O)[C@H](C)C[C@]4(OC(=O)CCc5ncc(-c6ccc(Cl)cc6)o5)[C@H]([C@@H]3C=C(CO)C[C@]2(O)C1=O)C4(C)C` [Compound K101-C1321]: the IC50 in experiment [1] was in the range of 0.03 to 0.06 µM; in [3] (read-out: IC50 in μM Namalwa (Lymphoma)), 0.03 to 0.06 µM; in experiment [4] (Homo sapiens, HL-60, read-out: IC50 in μM HL-60 (Leukemia)), 0.06 to 0.1 µM; in [5] (Homo sapiens, MINO, read-out: IC50 in μM Mino (Lymphoma)), 0.01 to 0.03 µM. In experiment [2] (0.3 μM, Western blot (FIG. 1)), the “phosphorylation of PKC (PKD/PKCμ), PKCδ and Erk1/2” value is listed as “induced high levels of phosphorylation”. Besides, the “ratio of (IC50 of K01)/(IC50 of compound), Namalwa” value in experiment [3] (Namalwa, value in parenthesis) amounted to 1.15. In addition, in [4] (HL-60, value in parenthesis), the “ratio of (IC50 of K01)/(IC50 of compound), HL-60” value is recorded as 5.71. The Ki (on C1b domain of human PKCδ; in [6]) was less than 5 nM in each case. Further, the “ratio of (IC50 of K01)/(IC50 of compound), Mino” value in experiment [5] (Mino, value in parenthesis) was found to be 5.36. On C1b domain of human PKCα, the “Ki PKCα” value was “E (E=>60 nM and ≤10 nM)”.

`CC1=C[C@H]2[C@@]3(O)[C@H](C)C[C@]4(OC(=O)[C@H](N)Cc5ccccc5)[C@H]([C@@H]3C=C(CO)C[C@]2(O)C1=O)C4(C)C` [Compound K101-C1336]: in [1], the IC50 lay within 1 to 2 µM. Also, the “phosphorylation of PKC (PKD/PKCμ), PKCδ and Erk1/2” value in [2] (3 μM, Western blot) is “induced phosphorylation”. Also, the Ki lay within 100 to 200 nM at C1b domain of human PKCδ, 2000 to 4000 nM on C1b domain of human PKCα and 30 to 60 nM in experiment [6].

Take `CC1=C[C@H]2[C@@]3(O)[C@H](C)C[C@]4(OC(=O)[C@H](N)CC5CCCCC5)[C@H]([C@@H]3C=C(CO)C[C@]2(O)C1=O)C4(C)C` [Compound K101-C1337]: the IC50 in [1] lay within 0.2 to 0.6 µM. The “phosphorylation of PKC (PKD/PKCμ), PKCδ and Erk1/2” value in [2] (Western blot, concentration not given, compared with enantiomer K101-C1327) was “induced much lower levels of phosphorylation”. The figures for the Ki (on C1b domain of human PKCδ; at C1b domain of human PKCα; in [6]) were 1 to 30 nM, 1000 to 2000 nM and 5 to 10 nM, respectively.

On to `CC1=C[C@H]2[C@@]3(O)[C@H](C)C[C@]4(OC(=O)[C@@H](N)C(C)(C)C)[C@H]([C@@H]3C=C(CO)C[C@]2(O)C1=O)C4(C)C` [Compound K101-C1346], for which the IC50 in experiment [1] is 0.2 to 0.6 µM; in the experiment with PANC1 cells, no more than 1500 nM. Also, the Ki on C1b domain of human PKCθ was in the range of 30 to 60 nM; on C1b domain of human PKCδ it was 1 to 30 nM; at C1b domain of human PKCα it was 200 to 400 nM; in experiment [6], 5 to 10 nM.
